The subject of this assay is B6C3F1 mice, B16 melanoma ip, median survival T/C. The experiment in a line: NCI In Vivo Anticancer Drug Screen. Data for tumor model B16 Melanoma (intraperitoneal) in B6C3F1 mice. The note with it: endpoint: median survival time, schedule: Q01DX009 (ip), higher = longer survival. The essentials:
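Tumor-bearing mice received test compound; a separate group got vehicle only. Survival was then compared, with results reported as treated over control.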

Where [1] appears, read: dose: 25.0 mg/kg/injection, vehicle: saline with Tween-80.
[2] abbreviates: dose: 50.0 mg/kg/injection, vehicle: saline with Tween-80.
Setting [3] is: dose: 100.0 mg/kg/injection, vehicle: saline with Tween-80.
Where [4] appears, read: dose: 200.0 mg/kg/injection, vehicle: saline with Tween-80.
[5] abbreviates: dose: 12.5 mg/kg/injection, vehicle: Klucel (hydroxypropylcellulose) (HPC).
Setting [6] is: dose: 25.0 mg/kg/injection, vehicle: Klucel (hydroxypropylcellulose) (HPC).
The mark [7] stands for this setting: dose: 50.0 mg/kg/injection, vehicle: Klucel (hydroxypropylcellulose) (HPC).
[8] abbreviates: dose: 25.0 mg/kg/injection, vehicle: saline.
[9] abbreviates: dose: 50.0 mg/kg/injection, vehicle: saline.
The mark [10] stands for this setting: dose: 3.12 mg/kg/injection, vehicle: saline.
Where [11] appears, read: dose: 6.25 mg/kg/injection, vehicle: saline.
[12] abbreviates: dose: 12.5 mg/kg/injection, vehicle: saline.
[13] abbreviates: dose: 12.5 mg/kg/injection, vehicle: saline with Tween-80.
Where [14] appears, read: dose: 100.0 mg/kg/injection, vehicle: Klucel (hydroxypropylcellulose) (HPC).
The mark [15] stands for this setting: dose: 200.0 mg/kg/injection, vehicle: Klucel (hydroxypropylcellulose) (HPC).
[16] abbreviates: dose: 400.0 mg/kg/injection, vehicle: Klucel (hydroxypropylcellulose) (HPC).

Data on 15 compounds can be found in PubChem BioAssay AID200 (DTP/NCI, 2004).

Inconclusive results and toxic doses are left out.

For `CCC1CC2CN(CCc3c([nH]c4ccccc34)C(C(=O)OC)(c3cc4c(cc3OC)N(C)C3C(O)(C(=O)OC)C(OC(C)=O)C5(CC)C=CCN6CCC43C65)C2)C1` (centres undefined), the T/C reads like this: (dose: 0.06 mg/kg/injection, vehicle: saline) 111 % of control; (dose: 0.06 mg/kg/injection, vehicle: suspension in saline) 116 % of control; (dose: 0.12 mg/kg/injection, vehicle: suspension in saline) 114 % of control; (dose: 0.13 mg/kg/injection, vehicle: saline) 110 % of control; (dose: 0.5 mg/kg/injection, vehicle: saline) 175 % of control; (dose: 1.0 mg/kg/injection, vehicle: saline) 208 % of control. Moreover, the T/C was 248 % of control (dose: 2.0 mg/kg/injection, vehicle: saline) and 226 % of control (dose: 2.0 mg/kg/injection, vehicle: suspension in saline).

As for `C[C@]12CC[C@H](O)CC1=CC[C@@H]1[C@@H]2CC[C@]2(C)C(=O)CC[C@@H]12`, the T/C is, setting by setting: under setting [1], 100 % of control; under setting [2], 97 % of control; under setting [3], 101 % of control; under setting [4], 92 % of control.

For `CC(=O)NC(CCc1ccc(Cl)c(Cl)c1)c1cccc(O)c(=O)c1` (centres undefined), the T/C was 93 % of control (dose: 3.0 mg/kg/injection, vehicle: Klucel (hydroxypropylcellulose) (HPC)); 101 % of control (dose: 6.0 mg/kg/injection, vehicle: Klucel (hydroxypropylcellulose) (HPC)); 101 % of control under setting [5]; 105 % of control under setting [6]; 105 % of control under setting [7].

In the case of `C=C(C(=O)O)C(N)C(=O)O` (centres undefined), the T/C by setting is: under setting [8], 97 % of control; under setting [9], 106 % of control; (dose: 100.0 mg/kg/injection, vehicle: saline) 106 % of control; (dose: 200.0 mg/kg/injection, vehicle: saline) 90 % of control.

As for `CC(C)(O)/C=C/C(=O)[C@](C)(O)[C@H]1[C@H](O)C[C@@]2(C)[C@@H]3CC=C4[C@@H](C[C@H](O)C(=O)C4(C)C)[C@]3(C)C(=O)C[C@]12C`, the T/C reads like this: (dose: 0.5 mg/kg/injection, vehicle: saline + Tween-80 + alcohol) 102 % of control; (dose: 1.0 mg/kg/injection, vehicle: saline + Tween-80 + alcohol) 98 % of control.

As for `COc1cc(NCCCCCCCNC(C)C)c2nccc(C)c2c1`, the T/C is, setting by setting: under setting [10], 103 % of control; under setting [11], 96 % of control; under setting [12], 103 % of control; under setting [8], 103 % of control.

Regarding `CCCCc1ccc(-n2c(C)c(COC(=O)NC)c(COC(=O)NC)c2C)cc1`, the T/C was 170 % of control (dose: 6.25 mg/kg/injection, vehicle: Klucel (hydroxypropylcellulose) (HPC)); 174 % of control under setting [5]; 169 % of control under setting [6].

Consider `CCN=C=NCCCN(C)C`, for which the T/C runs as follows: under setting [11], 109 % of control; under setting [12], 114 % of control.

Consider `NS(=O)(=O)OCCCCCCCOS(N)(=O)=O`, for which the T/C by setting is: under setting [13], 115 % of control; under setting [2], 171 % of control.

Turning to `CC(=O)O[C@H]1C(=O)[C@@]2(C)C(C(OC(=O)c3ccccc3)[C@]3(O)C[C@H](OC(=O)C(OC(=O)CCCC(=O)NCCCN(C)C)C(NC(=O)c4ccccc4)c4ccccc4)C(C)=C1C3(C)C)C1(OC(C)=O)COC1C[C@@H]2O` (some centres undefined), the T/C is, setting by setting: (dose: 10.0 mg/kg/injection, vehicle: water) 191 % of control; (dose: 20.0 mg/kg/injection, vehicle: water) 229 % of control; (dose: 40.0 mg/kg/injection, vehicle: water) 289 % of control.

Regarding `C/C=C/C=C1/OC(C)=C(C(C)=O)C1=O`, the T/C under setting [13] was 99 % of control; the T/C under setting [1] is 99 % of control; the T/C under setting [2] is 106 % of control; the T/C under setting [3] was 98 % of control; the T/C under setting [4] is 109 % of control.

As to `CC1=NNC(=O)C1CCO` (centres undefined), the T/C by setting is: under setting [5], 98 % of control; under setting [6], 104 % of control; under setting [7], 98 % of control; under setting [14], 98 % of control; under setting [15], 96 % of control; under setting [16], 96 % of control.

On to `CC(=O)Nc1ccc(N=Nc2c(C)nn(C(=N)N)c2C)cc1`, for which the T/C by setting is: under setting [10], 103 % of control; under setting [11], 99 % of control; under setting [12], 105 % of control; under setting [8], 95 % of control; under setting [9], 101 % of control.

For `C=C(C)C(=O)O[C@H]1CC2=C[C@@H](C[C@@]3(C)O[C@@H]3[C@H]3OC(=O)C(=C)[C@@H]31)OC2=O`, the T/C is 101 % of control (dose: 3.75 mg/kg/injection, vehicle: Klucel (hydroxypropylcellulose) (HPC)); 107 % of control (dose: 7.5 mg/kg/injection, vehicle: Klucel (hydroxypropylcellulose) (HPC)); 103 % of control (dose: 15.0 mg/kg/injection, vehicle: Klucel (hydroxypropylcellulose) (HPC)).

As to `CC(NC(=O)C(Cc1cnc[nH]1)NC(=O)OCc1ccccc1)C(=O)O` (centres undefined), the T/C was 98 % of control under setting [14], 104 % of control under setting [15] and 98 % of control under setting [16].
